Measured values published in US20230241178A1, “LONG ACTING GLP-1/GIP DUAL AGONISTS” (SUN PHARMACEUTICAL INDUSTRIES LIMITED, priority 2020, published 2023).
Marks after values point to notes of the source that are not given here. Numbered stars: 1 amine (or outer) side, 2 acyl side, 3 side chain; on linkers, the order of the positions; unused ones are H or OH. Square brackets hold non-standard residues; d marks the D form. Primed or numbered codes have the meaning given here. Ends that are not written are not given here. dSer(OMe) = COC[C@@H](N[*:1])C(=O)[*:2]; Moiety B″ = not defined here; Aib = CC(C)(N)C(=O)O

Assays:
[1] = test system: type 2 diabetic mouse (db/db) model; assay: Effect on blood glucose, food intake and body weight, single s.c. dose 10 nM/kg, db/db mice (Tables 8, 9); assay type: in vivo; conditions: 10 nM/kg/s.c/single dose
Description: This study was performed in a type 2 diabetic mouse (db/db) model. […] Baseline blood glucose was measured from all the animals. All the animals were administered with test items subcutaneously. Blood glucose was measured at 4 hr, 12 hr, 24 hr, 48 hr, 72 hr and 96 hr post treatment. Delta blood glucose (mM) was calculated. Body weight changes and cumulative food consumption was measured at 96 hr post treatment. Similarly the effect of Compounds 11-15 on blood glucose, food intake and body weight was studied in a separate study except for Compound 13. The results are shown in Table 8 (effect on blood glucose) and Table 9 (effect on body weight and food consumption).

[2] = test system: type 2 diabetic mouse (db/db) model; assay: Reduction in blood glucose and effect on body weight and food intake, single dose, db/db mice (Tables 4, 5); assay type: in vivo; conditions: for Delta Blood Glucose (mM), Mean: @ 3 nM s.c.
Description: The effect of Compounds of present invention on blood glucose was studied on mice. This study was performed in a type 2 diabetic mouse (db/db) model. […] Baseline blood glucose was measured from all the animals. All animals were administered with its respective test item subcutaneously. […] Delta blood glucose (mM) was calculated. Similarly body weight changes and cumulative food consumption was measured at 96 hr post treatment.

[3] = test system: type 2 diabetic mouse (db/db) model; assay: Reduction of HbA1c in db/db type 2 diabetic mice after chronic treatment (HbA1c, insulin, triglycerides, food consumption, body weight); assay type: in vivo; conditions: for Cumulative Food Consumption Day 0-28 / Insulin / Triglycerides / Δ% HbA1c vs. DC / Body Weight (%) Day 28 vs. Baseline: db/db mice
Description: This study was performed in a type 2 diabetic mouse (db/db) model. […] All the treatments were injected subcutaneously every third day for 10 doses (q3d*10). % HbA1c, Insulin, Triglycerides levels were measured on Day 0, day 14 and day 28. Cumulative food intake from day 0-28 and % Change in body weight compared to day 0 was calculated on day 28.

[4] = test system: type 2 diabetic mouse (db/db) model; assay: Effect of Compound 2 and 7 on blood glucose, body weight and food consumption in mice, up to 72 hr (Tables 6, 7); assay type: in vivo; conditions: 90 nM/kg; mice, n = 8
Description: Similarly body weight changes and cumulative food consumption was measured at 72 hr post treatment.

[5] = molecular target: glucagon-like peptide-1 receptor (GLP-1R) (UniProt P43220 24-463, limits assumed); assay: cell-based or functional assay
GIP-receptor (GIPR) = molecular target: T1, GIP-receptor (GIPR) (UniProt P48546 22-466, limits assumed); assay: cell-based or functional assay
T1 sequence (looked up): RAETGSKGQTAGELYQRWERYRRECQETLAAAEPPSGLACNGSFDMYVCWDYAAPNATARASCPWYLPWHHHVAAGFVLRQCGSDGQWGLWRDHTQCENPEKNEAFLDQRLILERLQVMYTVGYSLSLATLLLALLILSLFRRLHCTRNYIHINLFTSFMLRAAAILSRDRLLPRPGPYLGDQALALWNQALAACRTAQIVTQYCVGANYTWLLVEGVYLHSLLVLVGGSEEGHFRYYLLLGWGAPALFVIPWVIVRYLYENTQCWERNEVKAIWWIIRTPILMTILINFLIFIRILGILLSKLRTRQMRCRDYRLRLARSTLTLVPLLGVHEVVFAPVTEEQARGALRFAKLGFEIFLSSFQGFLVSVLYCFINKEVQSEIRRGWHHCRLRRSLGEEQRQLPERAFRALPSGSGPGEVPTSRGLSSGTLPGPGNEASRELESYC

[6] = 59 nM/kg s.c., separate study n = 5

## Compound 11: Seq ID: 11 polypeptide, Lys acylated with Moiety B (YXEGTFTSDYSIXLDKIAQKAFVQWLIAGGPSSGAPPPSR; (2)..(2) Xaa = Aib (2-Aminoisobutyric acid); (13)..(13) Xaa = Aib (2-Aminoisobutyric acid); (20)..(20) Side chain amino (Epsilon amino) group of Lys is substituted)
[1]; 0 hr (baseline)
  Delta Blood Glucose (mM), Mean: 0.0 mM
[1]
  Body Wt. Change (%) 96 hr. vs. Baseline, Mean: −4.5*** %
  Cumulative food Intake (g) 96 hr. vs. Baseline, Mean: 14.1*** g
  blood glucose reduction post treatment (in words): statistically significant blood glucose reduction
[1]; 4 hr post treatment
  Delta Blood Glucose (mM), Mean: −10.5*** mM
[1]; 12 hr post treatment
  Delta Blood Glucose (mM), Mean: −11.2*** mM
[1]; 24 hr post treatment
  Delta Blood Glucose (mM), Mean: −14.6*** mM
[1]; 48 hr post treatment
  Delta Blood Glucose (mM), Mean: −6.4*** mM
[1]; 72 hr post treatment
  Delta Blood Glucose (mM), Mean: −2.9*** mM
[1]; 96 hr post treatment
  Delta Blood Glucose (mM), Mean: 1.1 mM

## Compound 3: Seq ID: 06 polypeptide, Lys acylated with Moiety B (Y[dSer(OMe)]EGTFTSDYSI[Aib]LDKIAQK(Moiety B″)AFVQWLIAGGPSSGAPPPS-NH2; reading uncertain)
[2]; 3 nM/kg s.c., n = 6 study
  Cumulative Food Intake (g) 0-96 hr, Mean: 21.9 g
  Body Weight Change (%) 96 hr., Mean: −2.5*** %
[2]; 4 hr post treatment, n = 6 study
  Delta Blood Glucose (mM), Mean: -9.2 mM
[2]; 12 hr post treatment, n = 6 study
  Delta Blood Glucose (mM), Mean: -2.9 mM
[2]; 24 hr post treatment, n = 6 study
  Delta Blood Glucose (mM), Mean: 1.6 mM
[2]; 48 hr post treatment, n = 6 study
  Delta Blood Glucose (mM), Mean: 0.7 mM
[2]; 72 hr post treatment, n = 6 study
  Delta Blood Glucose (mM), Mean: 2 mM
[2]; 96 hr post treatment, n = 6 study
  Delta Blood Glucose (mM), Mean: 2.1 mM

## Compound 16: Seq ID: 11 polypeptide, Lys acylated with Moiety D (YXEGTFTSDYSIXLDKIAQKAFVQWLIAGGPSSGAPPPSR; (2)..(2) Xaa = Aib (2-Aminoisobutyric acid); (13)..(13) Xaa = Aib (2-Aminoisobutyric acid); (20)..(20) Side chain amino (Epsilon amino) group of Lys is substituted)
[1]; 0 hr (baseline)
  Delta Blood Glucose (mM), Mean: 0.0 mM
[1]; 4 hr post treatment
  Delta Blood Glucose (mM), Mean: −14.4*** mM
[1]; 12 hr post treatment
  Delta Blood Glucose (mM), Mean: −12.1*** mM
[1]; 24 hr post treatment
  Delta Blood Glucose (mM), Mean: −10.8*** mM
[1]; 48 hr post treatment
  Delta Blood Glucose (mM), Mean: −4.9** mM
[1]; 72 hr post treatment
  Delta Blood Glucose (mM), Mean: 0.8 mM
[1]; 96 hr post treatment
  Delta Blood Glucose (mM), Mean: 0.7* mM

## Compound 12: Seq ID: 11 polypeptide, Lys acylated with Moiety C (YXEGTFTSDYSIXLDKIAQKAFVQWLIAGGPSSGAPPPSR; (2)..(2) Xaa = Aib (2-Aminoisobutyric acid); (13)..(13) Xaa = Aib (2-Aminoisobutyric acid); (20)..(20) Side chain amino (Epsilon amino) group of Lys is substituted)
[1]; 0 hr (baseline)
  Delta Blood Glucose (mM), Mean: 0.0 mM
[1]
  Body Wt. Change (%) 96 hr. vs. Baseline, Mean: −3.1** %
  Cumulative food Intake (g) 96 hr. vs. Baseline, Mean: 15.2*** g
[1]; 4 hr post treatment
  Delta Blood Glucose (mM), Mean: −14.2*** mM
[1]; 12 hr post treatment
  Delta Blood Glucose (mM), Mean: −13.0*** mM
[1]; 24 hr post treatment
  Delta Blood Glucose (mM), Mean: −8.0*** mM
[1]; 48 hr post treatment
  Delta Blood Glucose (mM), Mean: −5.5* mM
[1]; 72 hr post treatment
  Delta Blood Glucose (mM), Mean: -2.9 mM
[1]; 96 hr post treatment
  Delta Blood Glucose (mM), Mean: 1.7 mM

## Tirzepatide [reference compound]
[3]; 180 nM/kg dose
  improvement in HbA1c reduction from day 14 to day 28 (in words): minimal improvement in HbA1c reduction
[3]; 90 nM/kg s.c. q3d*10
  Cumulative Food Consumption Day 0-28: 119.1
[3]; 180 nM/kg s.c. q3d*10
  Cumulative Food Consumption Day 0-28: 90.1
[3]; Day 14, 90 nM/kg s.c. q3d*10
  Insulin: 65.23 ng/mL
  Triglycerides: 168.7 mg/dL
  Δ% HbA1c vs. DC: −2.63*** %
[3]; Day 14, 180 nM/kg s.c. q3d*10
  Insulin: 71.77 ng/mL
  Triglycerides: 143.4 mg/dL
  Δ% HbA1c vs. DC: −3.50*** %
[3]; Day 28, 90 nM/kg s.c. q3d*10
  Body Weight (%) Day 28 vs. Baseline: −0.9%
  Insulin: 52.32 ng/mL
  Triglycerides: 167.4 mg/dL
  Δ% HbA1c vs. DC: −3.43*** %
[3]; Day 28, 180 nM/kg s.c. q3d*10
  Body Weight (%) Day 28 vs. Baseline: −6.8%
  Insulin: 60.19 ng/mL
  Triglycerides: 141.3 mg/dL
  Δ% HbA1c vs. DC: −3.74*** %
[2]; 10 nM/kg s.c., n = 6 study
  Cumulative Food Intake (g) 0-96 hr, Mean: 13.3*** g
  Body Weight Change (%) 96 hr., Mean: −3.4*** %
[2]; [6]
  Cumulative Food Intake (g) 0-96 hr, Mean: 15.9 g
  Body Weight Change (%) 96 hr., Mean: −2.8** %
[4]
  % Body wt. change 72 hr. vs. 0 hr., Mean: −6.7*** %
  Cumulative Food Consumption (0-72 hr) (g), Mean: 8.1** g

B1: Compound 2 (peptide)
peptide: YXEGTFTSDYSIXLDKIAQKAFVQWLIAGGPSSGAPPPS
modifications: Aib at positions 2 and 13; side chain epsilon-amino group of Lys 20 acylated with Moiety B (U-W-Y-Z with W = -C(O)-C(CH3)2-NH-, i.e. 2-[2-(2-aminoethoxy)ethoxy]acetyl-Aib-gammaGlu-C20 diacid); C-terminal primary amide (Ser-NH2)
[5]
  Tirzepatide/Compound 2 ratio of half-maximal effective concentrations, cellular cAMP assay: 1.68 ratio
GIP-receptor (GIPR)
  Tirzepatide/Compound 2 ratio of half-maximal effective concentrations, cellular cAMP assay: 0.81 ratio
